According to patent US20220220135A1 (BAR-ILAN UNIVERSITY, priority 2019, published 2022):
Like-named read-outs stand apart in the source and are kept apart here.

What was measured:
[1] = cited from earlier work
[2] = target: T1, NPP1 (Homo sapiens, UniProt P22413); assay: Inhibition of human NPP1, 100 μM ATP as substrate (FIG. 9, Table 6); format: biochemical; conditions: 100 μM ATP as a substrate; read-out: Ki, human NPP1
T1 sequence (P22413 1-925): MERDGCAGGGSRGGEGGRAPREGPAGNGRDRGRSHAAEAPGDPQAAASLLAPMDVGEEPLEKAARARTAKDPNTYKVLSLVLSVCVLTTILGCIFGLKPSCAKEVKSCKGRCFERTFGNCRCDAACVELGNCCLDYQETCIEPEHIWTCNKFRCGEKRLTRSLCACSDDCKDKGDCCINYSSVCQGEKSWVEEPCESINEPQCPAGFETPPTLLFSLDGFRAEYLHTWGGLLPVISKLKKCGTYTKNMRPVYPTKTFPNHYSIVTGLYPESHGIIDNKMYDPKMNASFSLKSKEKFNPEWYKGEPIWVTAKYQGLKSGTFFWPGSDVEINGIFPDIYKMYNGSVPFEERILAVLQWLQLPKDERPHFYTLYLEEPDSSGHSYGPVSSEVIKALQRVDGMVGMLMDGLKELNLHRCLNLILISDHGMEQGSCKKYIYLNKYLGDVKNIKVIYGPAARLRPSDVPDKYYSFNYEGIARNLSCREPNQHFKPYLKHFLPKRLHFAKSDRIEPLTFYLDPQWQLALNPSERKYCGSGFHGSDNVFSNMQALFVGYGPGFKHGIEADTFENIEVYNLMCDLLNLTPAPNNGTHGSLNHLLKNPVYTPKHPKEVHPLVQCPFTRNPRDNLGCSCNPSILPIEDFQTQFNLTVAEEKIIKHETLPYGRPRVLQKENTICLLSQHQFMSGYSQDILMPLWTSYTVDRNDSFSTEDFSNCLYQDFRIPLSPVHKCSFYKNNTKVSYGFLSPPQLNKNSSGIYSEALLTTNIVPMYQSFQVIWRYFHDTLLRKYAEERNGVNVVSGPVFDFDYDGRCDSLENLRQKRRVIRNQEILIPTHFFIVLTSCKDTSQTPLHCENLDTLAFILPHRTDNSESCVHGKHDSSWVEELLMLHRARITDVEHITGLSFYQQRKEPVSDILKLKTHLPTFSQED
Protocol: Each experiment was performed in triplicates;

[3] = target: T1, NPP1; assay: Inhibition of human NPP1, 100 μM p-Nph-5′-TMP as substrate (Tables 5, 6); conditions: for % inhibition ± SD at 10 μM, Human NPP1: inactive = no inhibition at 10 μM
[4] = target: T2, human NPP3 (Homo sapiens, UniProt O14638); assay: Inhibition of human NPP3, 100 μM p-Nph-5′-TMP as substrate (Tables 5, 7); format: biochemical; conditions: 10 μM; 100 μM p-Nph-5′-TMP as a substrate; inactive = no inhibition at 10 μM
T2 sequence (O14638 1-875): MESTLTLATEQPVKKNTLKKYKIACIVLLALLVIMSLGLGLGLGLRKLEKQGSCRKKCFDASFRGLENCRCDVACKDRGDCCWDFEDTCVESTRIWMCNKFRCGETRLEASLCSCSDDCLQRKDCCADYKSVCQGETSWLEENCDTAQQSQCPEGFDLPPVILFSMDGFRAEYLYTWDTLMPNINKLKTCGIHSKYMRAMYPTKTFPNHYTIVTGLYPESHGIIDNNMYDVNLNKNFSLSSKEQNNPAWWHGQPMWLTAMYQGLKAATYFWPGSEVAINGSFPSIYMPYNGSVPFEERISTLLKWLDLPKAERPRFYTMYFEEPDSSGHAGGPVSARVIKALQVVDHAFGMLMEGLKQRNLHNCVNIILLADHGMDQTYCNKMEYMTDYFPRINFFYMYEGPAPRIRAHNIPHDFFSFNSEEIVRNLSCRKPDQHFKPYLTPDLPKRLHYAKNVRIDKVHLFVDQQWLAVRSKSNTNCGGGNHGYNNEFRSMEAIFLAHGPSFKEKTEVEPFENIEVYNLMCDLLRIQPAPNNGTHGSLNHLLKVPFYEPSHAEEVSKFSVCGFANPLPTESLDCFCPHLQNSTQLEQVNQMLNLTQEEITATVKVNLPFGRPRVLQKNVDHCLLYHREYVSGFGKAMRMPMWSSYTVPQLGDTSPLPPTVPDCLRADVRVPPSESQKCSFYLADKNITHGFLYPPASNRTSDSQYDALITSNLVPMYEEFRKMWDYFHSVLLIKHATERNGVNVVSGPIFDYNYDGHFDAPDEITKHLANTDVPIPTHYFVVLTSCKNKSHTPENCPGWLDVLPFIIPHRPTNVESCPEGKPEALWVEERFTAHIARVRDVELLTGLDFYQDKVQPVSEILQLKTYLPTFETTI

[5] = target: T3, Human CD39 (NTPDase1) (Homo sapiens, UniProt P49961); assay: Inhibition of human CD39 (NTPDase1), 100 μM ADP as substrate; format: biochemical; conditions: 100 μM ADP as a substrate; for Ki: read-out: Ki ± SD (μM), Human CD39 (NTPDase1)
T3 sequence (P49961 1-510): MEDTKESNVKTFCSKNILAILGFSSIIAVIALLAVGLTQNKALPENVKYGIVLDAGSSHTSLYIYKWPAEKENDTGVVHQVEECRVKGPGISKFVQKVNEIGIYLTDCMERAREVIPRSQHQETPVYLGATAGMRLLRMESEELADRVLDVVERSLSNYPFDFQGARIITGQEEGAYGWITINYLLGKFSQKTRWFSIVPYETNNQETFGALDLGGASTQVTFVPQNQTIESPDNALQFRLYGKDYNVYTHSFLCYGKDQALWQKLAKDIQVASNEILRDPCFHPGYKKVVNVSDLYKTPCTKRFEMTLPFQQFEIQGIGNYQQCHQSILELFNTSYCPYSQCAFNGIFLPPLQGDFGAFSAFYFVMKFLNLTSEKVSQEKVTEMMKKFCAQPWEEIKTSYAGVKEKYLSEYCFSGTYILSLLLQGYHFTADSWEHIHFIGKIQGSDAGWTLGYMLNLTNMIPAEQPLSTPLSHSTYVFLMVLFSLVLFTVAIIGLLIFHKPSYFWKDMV

[6] = target: T4, Human CD73 (Homo sapiens, UniProt P21589); assay: Inhibition of human CD73, 5 μM [2,8-3H]AMP as substrate; format: biochemical; conditions: 5 μM [2,8-3H]AMP as a substrate; for Ki: read-out: Ki ± SD (μM), Human CD73; for % inhibition ± SD at 10 μM, Human CD73: inactive = no inhibition at 10 μM
T4 sequence (P21589 27-549): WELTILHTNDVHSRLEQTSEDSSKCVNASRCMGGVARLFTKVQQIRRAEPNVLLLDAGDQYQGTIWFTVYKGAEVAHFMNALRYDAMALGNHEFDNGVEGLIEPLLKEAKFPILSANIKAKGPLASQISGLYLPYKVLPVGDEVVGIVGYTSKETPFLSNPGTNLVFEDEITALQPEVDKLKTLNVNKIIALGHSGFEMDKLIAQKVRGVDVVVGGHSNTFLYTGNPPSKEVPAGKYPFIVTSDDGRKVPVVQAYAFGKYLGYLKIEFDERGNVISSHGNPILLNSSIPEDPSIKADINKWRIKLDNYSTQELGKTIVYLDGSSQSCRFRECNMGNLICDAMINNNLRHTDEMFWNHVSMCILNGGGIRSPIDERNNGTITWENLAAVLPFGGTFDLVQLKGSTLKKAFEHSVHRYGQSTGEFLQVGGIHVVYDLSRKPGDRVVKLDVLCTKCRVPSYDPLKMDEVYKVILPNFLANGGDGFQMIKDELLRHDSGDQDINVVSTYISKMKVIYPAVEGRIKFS

[7] = Chemical stability under acidic and basic conditions by 31P-NMR
Text: To evaluate the chemical stability of uridine-5′-Pα,α-dithiophosphate analogues, we measured by 31P-NMR the time-dependent percentage of the analogues remaining under basic and acidic conditions, and due to air-oxidation.

[8] = read-out: Ki ± SD (μM), Human NPP1, 100 μM p-Nph-5′-TMP as a substrate
[9] = 10 μM, inactive = no inhibition at 10 μM
[10] = 100 μM p-Nph-5′-TMP as a substrate

SMILES	Ki [3, 8] [µM]	% inhibition ± SD at 10 μM, Human NPP3 [4]	% inhibition ± SD at 10 μM, Human CD39 (NTPDase1) [5, 9]	Ki [6] [µM]	% inhibition ± SD at 10 μM, Human NPP1 [3, 10]	% inhibition ± SD at 10 μM, Human CD73 [6]	Ki [5] [µM]	also measured
Nc1nc(SCc2ccccc2)nc2c1ncn2[C@@H]1O[C@H](COP(O)(=S)OP(=O)(O)OP(=O)(O)O)[C@@H](O)[C@H]1O (stereo partly drawn) [2-Benzylthio-ATP-α-S]	–	–	–	–	–	–	–	Time for decomposition of 5% ([1]; Acidic pH, reference 34): 0.8 days; Time for decomposition of 10% ([1]; Acidic pH, reference 34): 1.7 days
CSc1nc(N)c2ncn(C3OC(COP(O)(=S)OP(=O)(O)O)C(O)C3O)c2n1 (stereo not drawn) [2-Methylthio-ADP-α-S]	–	–	–	–	–	–	–	Time for decomposition of 5% ([1]; Basic pH, reference 24): <0.021 days; Time for decomposition of 10% ([1]; Basic pH, reference 24): <0.021 days
Nc1ncnc2c1ncn2COCCOP(=O)(O)CP(=O)(O)O [Analogue 22]	16.3 ± 2.5	–	–	–	–	–	–	Ki [2]: 9.6 ± 2.84 µM
Nc1ncnc2c1ncn2[C@@H]1O[C@H](COP(=O)(O)CS(=O)(=O)O)[C@@H](O)[C@H]1O [Compound 20]	–	inactived	inactived	49.5 ± 0.7	inactived	–	–	–
Nc1ncnc2c1ncn2[C@@H]1O[C@H](COS(=O)(=O)CS(=O)(=O)O)[C@@H](O)[C@H]1O [Compound 21]	> 10	inactived	inactived	> 10	12 ± 1%	23 ± 3%	–	–
Nc1ncnc2c1ncn2COCCOP(=O)(O)CP(=O)(O)O [Compound 22]	–	inactived	22 ± 2%	12.6 ± 1.4	–	–	> 10	–
Nc1ncnc2c1ncn2COCCOP(=O)(O)C(Cl)(Cl)P(=O)(O)O [Compound 23]	> 10	inactived	24 ± 3%	> 10	4 ± 1%	17 ± 4%	> 10	–
Nc1ncnc2c1ncn2COCCOP(=O)(O)O [Compound 24]	–	inactived	inactived	> 10	inactived	5 ± 3%	–	–
Nc1ncnc2c1ncn2COCCO[PH](=O)O [Compound 25]	–	inactived	–	–	–	inactived	> 10	inhibition at 10 µM ([5]; 10 μM, inactive = no inhibition at 10 μM, read-out: % inhibition ± SD at 10 μM, Human CD39 (NTPDase1)): 33%; Ki [3]: > 10 µM; inhibition at 10 µM ([3]; read-out: % inhibition ± SD at 10 μM, Human NPP1): 6%
Nc1ncnc2c1ncn2COCCOP(O)(=S)OCCOCn1cnc2c(N)ncnc21 [Compound 26]	> 10	inactived	15 ± 2%	–	13 ± 1%	inactived	> 10	–
O=c1ccn([C@@H]2O[C@H](COP(=O)(O)OP(=O)(O)O)[C@@H](O)[C@H]2O)c(=O)[nH]1 [UDP]	–	–	–	–	–	–	–	decomposition ([7]; pD 2.1, after 28 days): 7%
O=c1ccn([C@@H]2O[C@H](COP(=O)(O)OP(=O)(O)OP(=O)(O)O)[C@@H](O)[C@H]2O)c(=O)[nH]1 [UTP]	–	–	–	–	–	–	–	Time for decomposition of 5% ([7]; Acidic pH): 7.5 days; Time for decomposition of 10% ([7]; Acidic pH): 19 days; Time for decomposition of 5% ([7]; Basic pH): 1 days; Time for decomposition of 10% ([7]; Basic pH): 8.5 days; decomposition ([7]; acidic, pD 2.1, after 20 days): 11%; decomposition ([7]; basic conditions (pD 12.1), after 20 days): 10%
